± gives the expanded uncertainty stated by the source.
Assay: xn = mol fraction of the nth substance listed
Details: 318.15 K, Liquid, Vibrating tube method

CCCCCCCC [octane] + c1ccccc1
mass density [kg/m3]
Details	x1 = 0.1097	x1 = 0.2036	x1 = 0.2984	x1 = 0.4069	x1 = 0.5027	x1 = 0.5904	x1 = 0.6989	x1 = 0.7964	x1 = 0.904	x1 = 1
100 kPa	818.2 ± 0.2	794.1 ± 0.2	773.6 ± 0.2	753.6 ± 0.2	738.1 ± 0.3	725.8 ± 0.3	712.4 ± 0.3	701.5 ± 0.3	691.1 ± 0.3	682.8 ± 0.3
2130 kPa	820.2 ± 0.2	796.1 ± 0.2	775.6 ± 0.3	755.6 ± 0.3	740.1 ± 0.3	727.8 ± 0.3	714.4 ± 0.3	703.5 ± 0.3	693.1 ± 0.3	684.7 ± 0.3
4150 kPa	822.1 ± 0.3	798.1 ± 0.3	777.6 ± 0.3	757.6 ± 0.3	742.1 ± 0.3	729.8 ± 0.3	716.4 ± 0.3	705.5 ± 0.3	695.1 ± 0.3	686.7 ± 0.3
6180 kPa	824 ± 0.3	800 ± 0.3	779.5 ± 0.3	759.5 ± 0.3	744 ± 0.3	731.7 ± 0.3	718.3 ± 0.3	707.4 ± 0.3	696.9 ± 0.3	688.6 ± 0.3
8210 kPa	825.8 ± 0.3	801.9 ± 0.3	781.4 ± 0.3	761.4 ± 0.3	745.9 ± 0.3	733.6 ± 0.3	720.2 ± 0.3	709.3 ± 0.3	698.8 ± 0.3	690.4 ± 0.3
10230 kPa	827.7 ± 0.3	803.7 ± 0.3	783.3 ± 0.3	763.3 ± 0.3	747.8 ± 0.3	735.5 ± 0.3	722 ± 0.3	711.1 ± 0.3	700.6 ± 0.3	692.2 ± 0.3
11250 kPa	828.6 ± 0.3	804.6 ± 0.3	784.2 ± 0.3	764.2 ± 0.3	748.7 ± 0.3	736.4 ± 0.3	722.9 ± 0.3	712 ± 0.3	701.5 ± 0.3	693.1 ± 0.4
12260 kPa	829.4 ± 0.3	805.5 ± 0.3	785.1 ± 0.3	765.1 ± 0.3	749.6 ± 0.3	737.3 ± 0.3	723.8 ± 0.3	713 ± 0.3	702.4 ± 0.4	694 ± 0.4
14290 kPa	831.2 ± 0.3	807.3 ± 0.3	786.8 ± 0.3	766.9 ± 0.3	751.4 ± 0.3	739.1 ± 0.3	725.6 ± 0.4	714.7 ± 0.4	704.2 ± 0.4	695.7 ± 0.4
16310 kPa	832.9 ± 0.3	809 ± 0.3	788.6 ± 0.3	768.6 ± 0.3	753.2 ± 0.3	740.8 ± 0.4	727.3 ± 0.4	716.4 ± 0.4	705.9 ± 0.4	697.4 ± 0.4
18340 kPa	834.6 ± 0.3	810.7 ± 0.3	790.3 ± 0.3	770.3 ± 0.3	754.9 ± 0.4	742.5 ± 0.4	729 ± 0.4	718.1 ± 0.4	707.5 ± 0.4	699.1 ± 0.4
20370 kPa	836.2 ± 0.3	812.4 ± 0.3	792 ± 0.3	772 ± 0.4	756.6 ± 0.4	744.2 ± 0.4	730.7 ± 0.4	719.8 ± 0.4	709.2 ± 0.4	700.7 ± 0.4
22390 kPa	837.9 ± 0.3	814.1 ± 0.3	793.6 ± 0.4	773.7 ± 0.4	758.2 ± 0.4	745.8 ± 0.4	732.3 ± 0.4	721.4 ± 0.4	710.8 ± 0.4	702.3 ± 0.4
24420 kPa	839.5 ± 0.3	815.7 ± 0.3	795.3 ± 0.4	775.3 ± 0.4	759.8 ± 0.4	747.4 ± 0.4	733.9 ± 0.4	723 ± 0.4	712.4 ± 0.5	703.9 ± 0.5
26450 kPa	841 ± 0.3	817.3 ± 0.4	796.8 ± 0.4	776.9 ± 0.4	761.4 ± 0.4	749 ± 0.4	735.5 ± 0.4	724.5 ± 0.5	713.9 ± 0.5	705.4 ± 0.5
28470 kPa	842.6 ± 0.3	818.8 ± 0.4	798.5 ± 0.4	778.5 ± 0.4	763 ± 0.4	750.6 ± 0.4	737 ± 0.5	726.1 ± 0.5	715.4 ± 0.5	706.9 ± 0.5
29490 kPa	843.3 ± 0.3	819.6 ± 0.4	799.2 ± 0.4	779.2 ± 0.4	763.7 ± 0.4	751.4 ± 0.4	737.8 ± 0.5	726.8 ± 0.5	716.1 ± 0.5	707.6 ± 0.5
30500 kPa	844.1 ± 0.3	820.4 ± 0.4	799.9 ± 0.4	780 ± 0.4	764.5 ± 0.4	752.1 ± 0.5	738.5 ± 0.5	727.5 ± 0.5	716.9 ± 0.5	708.3 ± 0.5
32530 kPa	845.6 ± 0.4	821.9 ± 0.4	801.4 ± 0.4	781.5 ± 0.4	766 ± 0.5	753.6 ± 0.5	740 ± 0.5	729 ± 0.5	718.3 ± 0.5	709.7 ± 0.5
34550 kPa	847.1 ± 0.4	823.4 ± 0.4	802.9 ± 0.4	783 ± 0.4	767.5 ± 0.5	755.1 ± 0.5	741.5 ± 0.5	730.5 ± 0.5	719.7 ± 0.5	711.2 ± 0.6
36580 kPa	848.5 ± 0.4	824.8 ± 0.4	804.4 ± 0.4	784.4 ± 0.5	768.9 ± 0.5	756.5 ± 0.5	742.9 ± 0.5	731.9 ± 0.5	721.1 ± 0.6	712.5 ± 0.6
38600 kPa	850 ± 0.4	826.3 ± 0.4	805.8 ± 0.4	785.9 ± 0.5	770.4 ± 0.5	757.9 ± 0.5	744.3 ± 0.5	733.3 ± 0.6	722.5 ± 0.6	713.9 ± 0.6
39620 kPa	850.7 ± 0.4	827 ± 0.4	806.5 ± 0.5	786.6 ± 0.5	771.1 ± 0.5	758.6 ± 0.5	745 ± 0.6	734 ± 0.6	723.2 ± 0.6	714.6 ± 0.6

Source: the NIST ThermoML archive (doi:10.1016/j.jct.2007.11.009)
